Results from patent US7943795B2, “Vitamin D receptor modulators” (Eli Lilly and Company, priority 2004, dated 2011).

What was measured:
RXR-VDR heterodimer = target: T1, RXR-VDR heterodimer (Homo sapiens, UniProt P11473); experiment: RXR-VDR heterodimerization (SaOS-2 cells) test; assay type: cell-based; conditions: Gal-4-RXR-DEF / VP16-VDR-LBD, luciferase reporter
T1 construct: add the Reporter gene pFR-LUC; and add the Gal-4-RXR-DEF and VP16-VDR-LBD; expressed in transfected cells; host or cells: SaOS-2 cells
T1 sequence (P11473 127-423 limits assumed): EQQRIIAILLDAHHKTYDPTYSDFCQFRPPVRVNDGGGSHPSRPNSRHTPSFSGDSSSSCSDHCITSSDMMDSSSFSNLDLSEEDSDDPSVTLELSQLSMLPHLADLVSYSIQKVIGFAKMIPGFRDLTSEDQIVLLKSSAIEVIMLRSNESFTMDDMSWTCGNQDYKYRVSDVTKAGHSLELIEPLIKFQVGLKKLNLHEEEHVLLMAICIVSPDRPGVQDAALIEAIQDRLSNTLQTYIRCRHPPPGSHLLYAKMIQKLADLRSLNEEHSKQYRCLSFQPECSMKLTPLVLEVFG
T1 sequence (P19793 201-462 partner limits assumed): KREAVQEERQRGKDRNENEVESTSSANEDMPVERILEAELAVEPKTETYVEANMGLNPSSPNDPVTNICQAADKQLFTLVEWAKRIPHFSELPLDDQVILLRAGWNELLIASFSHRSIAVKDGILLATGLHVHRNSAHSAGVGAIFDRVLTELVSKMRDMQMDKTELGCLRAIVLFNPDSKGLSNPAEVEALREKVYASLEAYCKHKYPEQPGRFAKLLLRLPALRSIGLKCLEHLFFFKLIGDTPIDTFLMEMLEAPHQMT
Experimental: 2. The RXR-VDR heterodimerization (SaOS-2 cells) test is described in the “Assay” section of the Description, infra.
1. The RXR-VDR Heterodimer Assay:
This assay provides the VDR activity of a test compound. It is desirable to have low EC50 values for a compound in this assay. […] Desired assay results are EC50 values less than or equal to 600 nM. Preferred assay results are less than 250 nM, and most preferably less than 150 nM.
(1) Materials and Method for RXR-VDR Heterodimerization Assay Transfection
• Method: Reagents: FuGENE 6 Transfection Reagent (Roche Cat #1 814 443); Growth Media: D-MEM High Glucose (Gibco BRL Cat #11054-020), 10% heat inactivated FBS, (Gibco BRL Cat#10092-147) 1% antibiotic-antimycotic (Ab-Am); (Gibco BRL Cat #15240-062). • Cells: Grow SaOS-2 cells in T-150 cm^2 culture flasks in growth media keeping the density at 5-6×10^5 cells/ml. Passage cells 1:3 twice a week. Add Trypsin EDTA (Gibco BRL Cat #25300-020) and incubate. Resuspend cells in plating media and transfer into growth media. • Wash Media: HBSS Low Glucose Without Phenol Red (Gibco BRL Cat #14175-095), 1% Ab-Am. Plating Media: D-MEM Low Glucose Without Phenol Red (Gibco BRL Cat #11054-020), 1% Ab-Am; D-MEM; 10% Stripped FBS (Hyclone Cat#SH30068.03 Lot #AHM9371); • Transfection/Treatment Media: D-MEM Low Glucose Without Phenol Red only; T-150 cm^2 culture flask: Use Corning Coastar T-150 cm^2 culture flask (Cat #430825) to grow the cells. • Luciferase Assay Reagent: Use Steady-Glo Luciferase Reagent from Promega (Cat #E2550) Consists of: E2533 Assay Substrate, lyophilized product and E2543 Assay Buffer. Thaw at room temperature and store. • Cell Harvesting/Count: Aspirate media from culture flask, rinse cells with HBSS and aspirate. Add trypsin and incubate. When cells appear detached, resuspend cells in growth media. Transfer into a new flask with fresh growth media for passaging the cells. Plate 96 well plates and two extra plates. Mix the cell suspension using pipette. To count the cells using a Hematocytometer. • Plate seeding: Use plating media 10% Stripped FBS in D-MEM Low Glucose, without Phenol Red, 1% Ab-Am. Plate 14 plates @ 165 μl/well. In sterile flask add cell suspension to plating media and mix. Add cells/well. Place the cells in the incubator. Cells should be about 75% confluent prior to transfection. DAY 2: Transfection: Step 1, DNA and Media: Add plain DMEM media to tubes for mixing the DNA; add the Reporter gene pFR-LUC; and add the Gal-4-RXR-DEF and VP16-VDR-LBD. Step 2, FuGENE and Media: Prepare plain DMEM media in a tubes for mixing FuGENE, add FuGENE 6 Transfection Reagent, and incubate. Step 3, FuGENE, DNA and Media Complex: Add FuGENE Media complex from step 2 to DNA Media complex from step 1 and incubate. Step 4, FuGENE, DNA and Media Complex to 96 well plate: Add FuGENE-DNA-Media complex from step 3 to each plate. Incubate. • Day 3: Dosing: Treatment preparation. Allow for transfection time. Make a stock solution of the compounds in DMSO and vortex until all the compounds have been dissolved. Further dilute in D-MEM (Low Glucose—without Phenol Red) Add compounds in quadruplicate to give desired final volume then incubate. • Day 4: Luciferase Assay: Read the plates after drug treatment. Remove part of media from all the wells and leave remainder. Add Steady-Glo Luciferase Reagent mixture/wells and incubate. Count each well using a Luminescence counter, Top Count NXT by Packard preferably set a delay between plates to reduce the background.

rat osteocalcin promoter = experiment: OCN (osteocalcin) promoter assay; assay type: cell-based; conditions: RG-15 (ROS 17/2.8) cells, 48 hr treatment, luciferase reporter
Experimental: 4. The OCN Promoter test is described in the “Assay” section of the Description, infra.
The OCN (Osteocalcin) Promoter Assay
The OCN Promoter Assay is an indicator and marker for osteoporosis. Desired assay results are EC50 less than or equal to 325 nM. Preferred assay results are less than 50 nM.
The activation of osteocalcin by VDR ligands is evaluated in a rat osteoblast-like cell line RG-15 (ROS 17/2.8) stably expressing rat osteocalcin promoter fused with luciferase reporter gene. The stable cell lines are established as reported before (Activation of Osteocalcin Transcription involves interaction of protein kinase A- and Protein kinase C-dependent pathways. Boguslawski, G., Hale, L. V., Yu, X.-P., Miles, R. R., Onyia, J. E., Santerre R. F., Chandrasekhar, S. J Biol. Chem. 275, 999-1006, 2000). Confluent RG-15 cells maintained in DMEM/F-12 medium (3:1) containing 5% FBS, 300 μg/ml G418 and at 37° C. under 5% CO2/95% air atmosphere are trypsinized (0.25% trypsin) and plated into white opaque 96-well cell culture plates (25000 cells/well). After 24 hr, cells (in DMEM/F-12 medium+2% FBS) are treated with various concentrations of compounds, dissolved in DMSO. The final DMSO concentration remains at 0.01% (v/v). After 48 hr treatment, the medium is removed, cells are lysed with 50 μl of lysis buffer (From Luciferase reporter assay system, Roche Diagnostics, Indianapolis, Ind.) and then assayed for luciferase activity using the Luciferase Reporter Gene Assay kit from Boehringer Mannheim as per manufacturer's specifications.

[1] = Mouse hypercalcemia assay; assay type: in vivo
Experimental: 5. The Mouse Hypercalcemia test is described in the “Assay” section of the Description, infra.
The Mouse Hypercalcemia Assay
The Mouse Hypercalcemia Assay is a six day hypercalcemia test for toxicity and selectivity. Acceptable test results are levels greater than 30 μg/kg/day. Preferred assay results are levels greater than 300 μg/kg/day.
Weanling, virus—antibody-free, five to six weeks old female DBF mice (Harlan, Indianapolis, Ind.) are used for all the studies. Animals are allowed to acclimate to local vivarium conditions for 2 days. Mice are maintained on a 12 hr light/dark cycle at 22° C. with ad lib access to food (TD 5001 with 1.2% Ca and 0.9% P, Teklad, Madison, Wis.) and water. The animals then are divided into groups with 4-5 mice per group. Different doses of test compounds prepared in 10% ethanol and 90% sesame oil, or in an aqueous suspension of sodium lauryl sulfate and CMC (the latter formulation for acidic compounds) are administered to mice orally via gavage for 6 days. 1α-25(OH)2D3 0.5 μg/kg/d was also given to one group of mice as the positive control. Serum ionized calcium is evaluated at 6 hours after the last dosing under isoflurane anesthesia by Ciba-Corning Ca++/PH Analyzer, (Model 634, Chiron Diagnostics Corp., East Walpole, Mass.). Raw data of group differences is assessed by analysis of variance (ANOVA) using Fisher's protected least significant difference (PLSD) where the significance level was P<0.05.

VDR = target: T2, VDR (Homo sapiens, UniProt P11473); experiment: VDR CTF (Caco-2 cells) co-transfection assay; assay type: cell-based; conditions: pGal4-VDR-LBD, luciferase reporter
T2 construct: the receptor expression vector pGal4-VDR-LBD (10 ng); expressed in transfected cells; host or cells: Caco-2 cells
T2 sequence (P11473 127-423 limits assumed): T1 sequence (P11473 127-423 limits assumed)
Experimental: 3. The VDR CTF (Caco-2 cells) test is described in the “Assay” section of the Description, infra.
The Caco-2 cell assay is an indicator for the undesirable condition of hypercalcemia. This co-transfection assay is a surrogate assay for in vivo calcemic activity of VDR ligands. It is desirable to have high EC50 values for a test compound in this assay. The higher the EC50 values for a compound the less calcemic it will be in vivo. Desired assay results are EC50 greater than or equal to 300 nM. Preferred assay results are greater than 1000 nM.
Caco-2 cells, grown in phenol red free, DMEM (Invitrogen, Carlsbad, Calif.) containing 10% charcoal-stripped FBS (Hyclone, Logan, Utah), are transfected with Fugene 6 reagent (Roche Diagnostics, Indianapolis, Ind.). Cells (5000/well) are plated 18 h before transfection in a 96 well plate. The cells are transfected with Gal4-responsive reporter pFRLuc (150 ng, Stratagene, La Jolla Calif.) and the receptor expression vector pGal4-VDR-LBD (10 ng), along with Fugene 6 reagent (0.2 μl/well). The DNA-Fugene complex is formed by incubating the mixture for 30 m at room temperature. The cells are transfected in triplicate for 5 h, and treated with various concentrations of VDR ligands (from 0.01 nM to […] concentration range) 18 h post-transfection. The luciferase activity is quantified using Steady-Glo reagent kit (Promega, Madison, Wis.) as per manufacturer's specifications.

[2] = no effect level: highest dose that did not cause hypercalcemia, oral gavage for 6 days, female DBF mice, serum ionized calcium

Structure (SMILES)	EC50 (RXR-VDR heterodimer) [nM]	EC50 (rat osteocalcin promoter) [nM]	Mouse Hypercal ([1]; female, DBF, mouse, in vivo, po, 6 days) [µg/kg/day]	EC50 (VDR) [nM]	EC50 (rat osteocalcin promoter; Rattus norvegicus, 48 h) [nM]	Mouse Hypercal [1, 2] [µg/kg/day]
CCC(CC)(c1ccc(OCC(O)C(C)(C)C)c(C)c1)c1ccc2cc(C(=O)O)ccc2c1 (single isomer, unassigned) [Ex. 2B, 6-{1-Ethyl-1-[4-(2-hydroxy-3,3-dimethyl-butoxy)-3-methyl-phenyl]-propyl}-naphthalene-2-carboxylic acid]	25.3	18.4	1000	–	–	–
CCC(CC)(c1ccc(OCC(=O)C(C)(C)C)c(C)c1)c1ccc2ccc(C(=O)O)cc2c1 [Ex. 6, 7-{1-[4-(3,3-Dimethyl-2-oxobutoxy)-3-methylphenyl]-1-ethylpropyl}naphthalene-2-carboxylic acid]	715	–	–	714	104	–
CCC(Oc1ccc(C(CC)(CC)c2ccc3cc(C(=O)NCC(=O)O)ccc3c2)cc1C)C(O)C(C)(C)C (stereo not drawn) [Ex. 7, 2-[6-{1-ethyl-1-[4-(1-ethyl-2-hydroxy-3,3-dimethyl-butoxy)-3-methyl-phenyl]-propyl}-naphthalene-2-carbonylamino]acetic acid]	2.6	–	–	–	0.7	100
CCC(Oc1ccc(C(CC)(CC)c2ccc3cc(C(=O)N(C)CC(=O)O)ccc3c2)cc1C)C(O)C(C)(C)C (stereo not drawn) [Ex. 8, N-methyl-2-[6-{1-ethyl-1-[4-(1-ethyl-2-hydroxy-3,3-dimethyl-butoxy)-3-methyl-phenyl]-propyl}-naphthalene-2-carbonyl-amino]acetic acid]	2	–	–	–	0.6	300
